This is an account of results in publication PMC8942544, “Design and synthesis of benzodiazepines as brain penetrating PARP-1 inhibitors” (Journal of Enzyme Inhibition and Medicinal Chemistry, 2022).

Broadly, the IC50 is the concentration at which inhibition is half-maximal. A high value points to weaker potency in that assay. For orientation: inhibition means the drop in the measured response relative to a control, in per cent. Lower therefore signals a weak effect. Usually Papp A→B stands for the apparent permeability from the apical to the basolateral side of a cell layer. Higher therefore signals ready permeation.

“Also recorded” adds a separate entry of the source. Where two headings read alike, the source gives them in different places.

For one data set, the target named is T1, PARP-1 (Homo sapiens, UniProt P09874).
T1 construct: purchased BPS Bioscience 80580
T1 sequence (P09874 whole entry): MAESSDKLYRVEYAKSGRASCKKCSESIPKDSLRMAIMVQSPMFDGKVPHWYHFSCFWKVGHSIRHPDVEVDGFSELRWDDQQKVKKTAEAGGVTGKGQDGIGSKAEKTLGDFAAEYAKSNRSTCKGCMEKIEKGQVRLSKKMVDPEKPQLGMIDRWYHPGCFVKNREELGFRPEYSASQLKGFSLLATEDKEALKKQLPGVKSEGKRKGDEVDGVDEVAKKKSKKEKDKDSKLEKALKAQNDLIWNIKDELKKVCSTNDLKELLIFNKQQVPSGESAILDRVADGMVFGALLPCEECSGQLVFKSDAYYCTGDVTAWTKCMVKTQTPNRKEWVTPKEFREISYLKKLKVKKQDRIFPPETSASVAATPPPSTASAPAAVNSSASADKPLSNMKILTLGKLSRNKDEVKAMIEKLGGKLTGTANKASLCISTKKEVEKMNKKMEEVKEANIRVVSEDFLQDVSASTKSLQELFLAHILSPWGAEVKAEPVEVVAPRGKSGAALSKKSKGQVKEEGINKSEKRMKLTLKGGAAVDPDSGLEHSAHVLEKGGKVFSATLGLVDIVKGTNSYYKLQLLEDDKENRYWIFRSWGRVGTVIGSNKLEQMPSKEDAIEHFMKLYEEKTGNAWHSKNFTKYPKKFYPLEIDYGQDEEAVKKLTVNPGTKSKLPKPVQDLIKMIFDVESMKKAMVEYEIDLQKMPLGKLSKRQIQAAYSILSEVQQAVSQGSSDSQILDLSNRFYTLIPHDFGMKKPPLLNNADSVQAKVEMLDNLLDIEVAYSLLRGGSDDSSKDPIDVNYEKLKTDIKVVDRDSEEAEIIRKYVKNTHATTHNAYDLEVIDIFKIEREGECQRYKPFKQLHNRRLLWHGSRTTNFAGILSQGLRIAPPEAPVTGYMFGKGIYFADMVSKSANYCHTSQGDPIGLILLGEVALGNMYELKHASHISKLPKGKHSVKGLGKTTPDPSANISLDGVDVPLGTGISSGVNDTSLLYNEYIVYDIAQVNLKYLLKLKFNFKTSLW
Nature of the data set: PARP-1 enzyme inhibition assay (BPS Bioscience PARP Colorimetric Assay Kit). In kind it is biochemical. Particulars: for inhibition at 0.05 µM: compound concentration 50 nM, three independent tests. As for the experimental part:
All target compounds were evaluated for PARP-1 enzyme inhibition activity at the concentration of 50 nM determined by previous pre-experiments.
The ability of the compounds to inhibit PARP-1 enzyme activity was assessed using BPS Bioscience's PARP Colorimetric Assay Kit (BPS Bioscience, Catalog # 80580). PARP-1 is known to catalyse the NAD-dependent addition of poly(ADP-ribose) to histones. The PARP-1 assay kit comes in a convenient 96-well format, with purified PARP-1 enzyme, histone mixture, activated DNA, and PARP-1 assay buffer. The key to the PARP-1 Colorimetric Activity Assay is the biotinylated substrate. With this kit, only three simple steps are required for PARP-1 reactions. First, histone proteins are coated on a 96-well plate. Next, the PARP-1 biotinylated substrate is incubated with an assay buffer that contains the PARP-1 enzyme. Finally, the plate is treated with streptavidin-HRP followed by the addition of the colorimetric HRP substrate to produce colour that can then be measured using a UV/Vis spectrophotometer microplate reader. IC50 values were calculated using GraphPad Prism5 software.

The target of another data set is PARP-2 (Homo sapiens, UniProt Q9UGN5). Put plainly: PARP-2 enzyme inhibition (IC50). In kind it is biochemical. An excerpt:
PARP-2 is the closest homolog of PARP-1, which also resides in the nucleus and functions similarly to PARP-1.

The test system of data set [1] is MX-1 (BRCA1 mutant tumour cells). Put plainly: MTT antiproliferation assay, MX-1 cells. It is filed as cell-based. As to conditions: Homo sapiens, MX1, breast cancer cell line, 48 h. The protocol:
(§1) Due to their acceptable inhibition rates (more than 50%) at the concentration of 50 nM, compounds H34, H42, H48, H50, and H52 were selected to evaluate the proliferation inhibition activity on several cancer cells, including BRCA1 mutant tumour cells (MX-1) and BRCA1 wild type tumour cells (MCF7 and A549).
(§2) The MTT assay was performed to detect the sensitivity of cells to anticancer drugs in vitro. The human A549, MCF7, and U87 tumour cells, as well as human BRCA mutant tumour cells (MX-1), were tested in this study. The cell culture was carried out in accordance with routine operations or instructions. Briefly, 5,000 cells were seeded in each well of a 96-well plate. After cell attachment to the bottom of the well, different concentrations of tested compounds were added into designated wells. After 48 h of incubation, 20 µL of MTT solution (5 mg/mL) were added to each well for cell staining. After 4 h, the media were removed and 150 µL of DMSO were added to each well. Finally, the absorbance was determined at 570 nm using a multifunctional microplate reader (TECAN).

Another data set deals with MCF7 cells. Nature of the data set: MTT antiproliferation assay, MCF7 cells. In kind it is cell-based. As to conditions: Homo sapiens, breast cancer cell line, 48 h. As for the experimental part:
as §1, §2
A general note: Tetrazolium assays rely on reduction of a dye to a coloured formazan, in cell work by metabolically active cells.

The next data set relates to A549 cells. Nature of the data set: MTT antiproliferation assay, A549 cells. As to conditions: Homo sapiens, lung cancer cell line, 48 h. It is filed as cell-based. The protocol:
as §1, §2

In a further data set the test system is glioblastoma (U87) cells. Nature of the data set: Antiproliferation in combination with TMZ, U87 cells. In kind it is cell-based, human. Particulars: combination with Temozolomide. As for the experimental part:
as §2

The nature of data set [2]: Brain/plasma pharmacokinetic study in vivo. As to conditions: mouse, intravenous, ICR mice; for concentration at 5 min / Kp at 5 min: 5 min after tail vein injection of 1.5 mg/kg; for concentration at 60 min / Kp at 60 min: 60 min after tail vein injection of 1.5 mg/kg. As for the experimental part:
Further, the brain permeability of representative compounds was evaluated in ICR mice. After tail vein injection of a 1.5 mg/kg dose, the concentrations of the compounds in the brain and plasma were measured after 5 min and 60 min of administration, and the brain/plasma (B/P) ratio was calculated. […] On the contrary, compounds H42 and H52 performed high B/P ratios, which were consistent with our initial expectations. Among them, the B/P ratio of H42 reached balance rapidly in vivo and maintained above 3, while the proportion of H52 in the brain increased gradually and reached 4.41 at 60 min.
All animal experiments were complied with the ARRIVE guidelines and were carried out in accordance with the U.K. Animals Act, 1986 and associated guidelines. The ICR mice were used in plasma–brain distribution assay of compounds. After tail vein injection of a 1.5 mg/kg dose, the concentrations of the compounds in the brain and plasma were measured after 5 min and 60 min of administration, and the brain/plasma (B/P) ratio was calculated. The samples of plasma and brain tissue were prepared as previously reported. An established LC-MS/MS method was used for determining the concentration of representative compounds in plasma and brain tissue.

Data set [3] concerns MDCK cells monolayer model. As to conditions: dog, 3 h, 10 µM.
Another data set is described as follows: in vitro. Particulars: dog, MDCK.
For data set [4] the following is noted: cited from earlier work.
[5] abbreviates: brain/plasma, read-out: B/P ratio.

Sequence of PARP-2 (Q9UGN5 whole entry): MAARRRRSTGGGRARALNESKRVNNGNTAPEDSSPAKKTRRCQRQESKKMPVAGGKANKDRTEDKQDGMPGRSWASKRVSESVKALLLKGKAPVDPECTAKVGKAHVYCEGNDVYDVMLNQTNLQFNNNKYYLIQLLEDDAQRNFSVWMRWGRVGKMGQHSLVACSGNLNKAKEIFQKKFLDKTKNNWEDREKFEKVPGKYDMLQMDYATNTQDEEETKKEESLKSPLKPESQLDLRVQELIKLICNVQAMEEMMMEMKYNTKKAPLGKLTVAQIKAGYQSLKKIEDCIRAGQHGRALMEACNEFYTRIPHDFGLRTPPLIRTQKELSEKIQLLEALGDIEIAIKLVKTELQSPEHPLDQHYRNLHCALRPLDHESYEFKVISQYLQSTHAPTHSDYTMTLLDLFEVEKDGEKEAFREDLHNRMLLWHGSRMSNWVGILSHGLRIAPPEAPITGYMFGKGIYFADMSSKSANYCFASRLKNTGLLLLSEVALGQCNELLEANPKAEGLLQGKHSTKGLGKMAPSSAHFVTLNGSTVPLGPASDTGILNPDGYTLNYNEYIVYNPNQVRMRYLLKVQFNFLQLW

As to `COc1ccc(-c2ccc(C3CNC(=O)c4ccccc4N3)cc2)cc1` (stereo not drawn) [Compound H50, 2-(4′-Methoxy-[1,1′-biphenyl]-4-yl)-1,2,3,4-tetrahydro-5H-benzo[e][1,4]diazepin-5-one], the IC50 was 0.0463 µM against PARP-1; 0.0451 µM against PARP-2; 130 ± 10.7 µM in data set [1]; 125 ± 13.2 µM in the data set on MCF7 cells; above 200 µM in the data set on A549 cells. For the same compound, the inhibition at 0.05 µM on PARP-1 is above 50%.

For `COc1ccc(-c2ccc(C3=Nc4ccccc4C(=O)NC3)cc2)cc1` [Compound H42, 2-(4′-Methoxy-[1,1′-biphenyl]-4-yl)-3,4-dihydro-5H-benzo[e][1,4]diazepin-5-one], the IC50 turned out to be 0.0403 µM at PARP-1; 0.0471 µM against PARP-2; 31.4 ± 2.8 µM in data set [1]; 39.4 ± 4.2 µM with MCF7 cells; 162 ± 18.4 µM in the data set on A549 cells. Also, at PARP-1, the inhibition at 0.05 µM was above 50%. Also, the “Sensitisation effect in combination with TMZ” value in the data set with glioblastoma (U87) cells is reported as “significant sensitisation effects”. For the same compound, the concentration at 5 min in data set [2] (brain, read-out: Brain) was determined as 1820 ± 324 ng/g; in data set [2] (plasma, read-out: Plasma), 555 ± 104 ng/mL. For the same compound, the concentration at 60 min was determined as 51.8 ± 13.6 ng/g in data set [2] (brain, read-out: Brain) and 15.1 ± 5.44 ng/mL in data set [2] (plasma, read-out: Plasma). Further, the Kp at 5 min in [2] (setting [5]) was 3.28 ± 0.28. Besides, the Kp at 60 min in data set [2] (setting [5]) was found to be 3.58 ± 0.53. In data set [2] (brain/plasma, maintained over 5 and 60 min, 1.5 mg/kg tail vein, read-out: B/P ratio), the Kp was above 3. In [3], this compound yielded a Capical of 1.62 ± 0.37 µg/mL. Besides, in data set [3], the Cbasolateral is 0.33 ± 0.05 µg/mL. In “in vitro”, this compound came in with a Papp A→B at 3 h, 10 µM of 16.1 ± 1.08 ×10⁻⁶ cm/s.

Consider `Nc1ccc(-c2ccc(C3CNC(=O)c4ccccc4N3)cc2)cc1` (stereo not drawn) [Compound H48, 2-(4′-Amino-[1,1′-biphenyl]-4-yl)-1,2,3,4-tetrahydro-5H-benzo[e][1,4]diazepin-5-one], for which the IC50 against PARP-1 worked out at 0.0378 µM; on PARP-2, 0.0407 µM; in data set [1] it was 30.7 ± 4 µM; in the data set on MCF7 cells, 35.7 ± 2.9 µM; in the data set with A549 cells, 176 ± 23.1 µM. This compound yielded an inhibition at 0.05 µM against PARP-1 above 50%. Besides, the concentration at 5 min in data set [2] (brain, read-out: Brain) came to 1050 ± 153 ng/g; in data set [2] (plasma, read-out: Plasma), 2650 ± 264 ng/mL. The concentration at 60 min came to 10.1 ± 0.87 ng/g in data set [2] (brain, read-out: Brain) and 157 ± 32.3 ng/mL in data set [2] (plasma, read-out: Plasma). Besides, the Kp at 5 min in data set [2] (setting [5]) is 0.4 ± 0.05. Also, the Kp at 60 min in [2] (setting [5]) is 0.07 ± 0.02. In data set [3], this compound had a Capical of 2.43 ± 0.42 µg/mL. Also, in data set [3], the Cbasolateral came out at 0.23 ± 0.06 µg/mL. Also, the Papp A→B at 3 h, 10 µM in the data set “in vitro” was found to be 11.7 ± 0.51 ×10⁻⁶ cm/s.

Consider `Cc1n[nH]c(C)c1-c1ccc(C2=Nc3ccccc3C(=O)NC2)cc1` [Compound H34, 2-(4-(3,5-Dimethyl-1H-pyrazol-4-yl)phenyl)-3,4-dihydro-5H-benzo[e][1,4]diazepin-5-one], for which the 50% inhibitory concentration (IC50) against PARP-1 worked out at 0.0414 µM; at PARP-2, 0.0512 µM; in data set [1], 40.3 ± 3.3 µM; in the data set with MCF7 cells it was 44.3 ± 5.2 µM; in the data set with A549 cells, 121 ± 16.2 µM. The same compound registered an inhibition at 0.05 µM at PARP-1 above 50%. Besides, the concentration at 5 min in data set [2] (brain, read-out: Brain) was determined as 301 ± 52.5 ng/g; in [2] (plasma, read-out: Plasma), 3120 ± 220 ng/mL. In addition, the concentration at 60 min in [2] (brain, read-out: Brain) is 9.67 ± 8.75 ng/g; in [2] (plasma, read-out: Plasma), 1050 ± 70.3 ng/mL. Moreover, in data set [2] (setting [5]), the Kp at 5 min turned out to be 0.1 ± 0.01. For the same compound, the Kp at 60 min in data set [2] (setting [5]) is 0.01 ± 0.01. This compound registered a Capical in [3] of 1.65 ± 0.32 µg/mL. In data set [3], this compound had a Cbasolateral of 0.31 ± 0.08 µg/mL. This compound yielded a Papp A→B at 3 h, 10 µM in “in vitro” of 15.7 ± 1.32 ×10⁻⁶ cm/s.

For the compound `Cn1ncnc1[C@H]1c2n[nH]c(=O)c3cc(F)cc(c23)N[C@@H]1c1ccc(F)cc1` [Talazoparib], the CNS penetration result in data set [4] was “not CNS penetrant”.

At PARP-1, `CNCc1ccc(-c2[nH]c3cc(F)cc4c3c2CCNC4=O)cc1` [Rucaparib, reference compound] had an inhibition at 0.05 µM of 98.2 ± 2.7%. Besides, the IC50 turned out to be 5.5 ± 2.2 µM in data set [1], 20.2 ± 3.1 µM with MCF7 cells and 34.9 ± 5.2 µM with A549 cells. The concentration at 5 min in data set [2] (brain, read-out: Brain) turned out to be 170 ± 48.5 ng/g; in data set [2] (plasma, read-out: Plasma) it was 1180 ± 122 ng/mL. Also, the concentration at 60 min in data set [2] (brain, read-out: Brain) amounted to 13.9 ± 3.78 ng/g; in data set [2] (plasma, read-out: Plasma), 161 ± 60.5 ng/mL. Moreover, in data set [2] (setting [5]), the Kp at 5 min was 0.14 ± 0.04. In data set [2] (setting [5]), the Kp at 60 min is 0.1 ± 0.06. In data set [3], the Capical turned out to be 3.39 ± 0.82 µg/mL. In addition, the CNS penetration entry in data set [4] is listed as “could not pass through the blood-brain barrier; also recorded: not CNS penetrant”.

`O=C1NCC(c2cccc(Cl)c2)=Nc2ccccc21` [Compound H11, 2-(3-Chlorophenyl)-3,4-dihydro-5H-benzo[e][1,4]diazepin-5-one] came in with an inhibition at 0.05 µM on PARP-1 of 28.7 ± 2.6%.

Turning to `O=C1NCC(c2cccc(F)c2)=Nc2ccccc21` [Compound H9, 2-(3-Fluorophenyl)-3,4-dihydro-5H-benzo[e][1,4]diazepin-5-one], testing at 0.05 µM on PARP-1 gave an inhibition of 36.6 ± 3%.

As for `COc1cccc(C2CNC(=O)c3ccccc3N2)c1` (stereo not drawn) [Compound H21, 2-(3-Methoxyphenyl)-1,2,3,4-tetrahydro-5H-benzo[e][1,4]diazepin-5-one], the inhibition at 0.05 µM on PARP-1 is 27.3 ± 2.3%.

Turning to `O=C(c1cc(Cc2n[nH]c(=O)c3ccccc23)ccc1F)N1CCN(C(=O)C2CC2)CC1` [Olaparib], the CNS penetration entry in [4] is “not CNS penetrant”.

`O=C1NCC(c2ccc(Br)cc2)Nc2ccccc21` (stereo not drawn) [Compound H27, 2-(4-Bromophenyl)-1,2,3,4-tetrahydro-5H-benzo[e][1,4]diazepin-5-one]: the inhibition at 0.05 µM on PARP-1 was 43.2 ± 2.5%.

In the case of `O=C1NCC(c2ccc3ccccc3c2)=Nc2ccccc21` [Compound H18, 2-(Naphthalen-2-yl)-3,4-dihydro-5H-benzo[e][1,4]diazepin-5-one], the inhibition at 0.05 µM against PARP-1 is 35.9 ± 2.2%.

In turn, `O=C1NCC(c2ccc(-c3ccc(C(F)(F)F)cc3)cc2)=Nc2ccccc21` [Compound H44, 2-(4′-(Trifluoromethyl)-[1,1′-biphenyl]-4-yl)-3,4-dihydro-5H-benzo[e][1,4]diazepin-5-one] gave an inhibition at 0.05 µM against PARP-1 of 45.1 ± 5.2%.

Compound `O=C1NCC(c2ccc(-c3cccc(C(F)(F)F)c3)cc2)Nc2ccccc21` (stereo not drawn) [Compound H51, 2-(3′-(Trifluoromethyl)-[1,1′-biphenyl]-4-yl)-1,2,3,4-tetrahydro-5H-benzo[e][1,4]diazepin-5-one] came in with an inhibition at 0.05 µM on PARP-1 of 48.8 ± 3.7%.

Consider `COc1cccc(C2=Nc3ccccc3C(=O)NC2)c1` [Compound H7, 2-(3-Methoxyphenyl)-3,4-dihydro-5H-benzo[e][1,4]diazepin-5-one], for which 0.05 µM produced 34.7 ± 2.9% inhibition against PARP-1.
